The experiment has as its system CD2F1 mice, L1210 leukemia ip, survival T/C. Kind of experiment: NCI In Vivo Anticancer Drug Screen. Data for tumor model L1210 Leukemia (intraperitoneal) in CD2F1 (CDF1) mice. To be noted: higher = longer survival. Here is the method:
The antitumor activity of compounds was measured in mice bearing transplantable tumors. Survival or tumor size were measured and the results are expressed as the measurement made in the treated group (T) divided by the measurement made in the vehicle treated control group (C). The tumor model used in this assay is L1210 Leukemia (intraperitoneal) in CD2F1 (CDF1) mice

Where [1] appears, read: endpoint: mean survival time, dose: 100.0 mg/kg/injection, schedule: Q04DX003 (ip), vehicle: saline with Tween-80.
The mark [2] stands for this setting: endpoint: mean survival time, dose: 200.0 mg/kg/injection, schedule: Q04DX003 (ip), vehicle: saline with Tween-80.
[3] abbreviates: endpoint: mean survival time, dose: 400.0 mg/kg/injection, schedule: Q04DX003 (ip), vehicle: saline with Tween-80.
Where [4] appears, read: endpoint: mean survival time, dose: 100.0 mg/kg/injection, schedule: Q01DX009 (ip), vehicle: saline with Tween-80.
Setting [5] is: endpoint: mean survival time, dose: 100.0 mg/kg/injection, schedule: Q01DX001 (ip), vehicle: saline with Tween-80.
The mark [6] stands for this setting: endpoint: mean survival time, dose: 200.0 mg/kg/injection, schedule: Q01DX001 (ip), vehicle: saline with Tween-80.

The record followed here is PubChem BioAssay AID256 (DTP/NCI, 2004).

Where “and” joins values, the source holds several entries; their conditions need not be identical. Equal entries are not always repeated. Toxic doses and inconclusive results are not listed.

With `NC(Cc1ccc(N(CCCl)CCCl)cc1)C(=O)O` (stereo not drawn), the T/C by setting is: (endpoint: mean survival time, dose: 5.0 mg/kg/injection, schedule: Q01DX009 (ip), vehicle: Klucel (hydroxypropylcellulose) (HPC)) 106 % of control; (endpoint: mean survival time, dose: 5.0 mg/kg/injection, schedule: Q01DX009 (ip), vehicle: saline with Tween-80) 121 % of control; (endpoint: mean survival time, dose: 6.4 mg/kg/injection, schedule: Q01DX001 (ip), vehicle: water) 104 % of control; (endpoint: mean survival time, dose: 6.4 mg/kg/injection, schedule: Q11HX001 (ip), vehicle: water) 104 % of control; (endpoint: mean survival time, dose: 8.0 mg/kg/injection, schedule: Q01DX001 (ip), vehicle: water) 101 % of control; (endpoint: mean survival time, dose: 8.0 mg/kg/injection, schedule: Q11HX001 (ip), vehicle: water) 101 % of control. Also, the T/C is, setting by setting: (endpoint: mean survival time, dose: 10.0 mg/kg/injection, schedule: Q01DX001 (ip), vehicle: water) 105 % of control; (endpoint: mean survival time, dose: 10.0 mg/kg/injection, schedule: Q01DX009 (ip), vehicle: Klucel (hydroxypropylcellulose) (HPC)) 105 % of control; (endpoint: mean survival time, dose: 10.0 mg/kg/injection, schedule: Q01DX009 (ip), vehicle: saline with Tween-80) 113 % of control; (endpoint: mean survival time, dose: 10.0 mg/kg/injection, schedule: Q03DX003 (ip), vehicle: Klucel (hydroxypropylcellulose) (HPC)) 183 % of control; (endpoint: mean survival time, dose: 10.0 mg/kg/injection, schedule: Q04DX003 (ip), vehicle: Klucel (hydroxypropylcellulose) (HPC)) 168 % of control; (endpoint: mean survival time, dose: 10.0 mg/kg/injection, schedule: Q11HX001 (ip), vehicle: water) 105 % of control. Further, the T/C by setting is: (endpoint: mean survival time, dose: 12.5 mg/kg/injection, schedule: Q01DX001 (ip), vehicle: water) 104 % of control; (endpoint: mean survival time, dose: 12.5 mg/kg/injection, schedule: Q11HX001 (ip), vehicle: water) 104 % of control; (endpoint: mean survival time, dose: 20.0 mg/kg/injection, schedule: Q01DX007 (ip), vehicle: Klucel (hydroxypropylcellulose) (HPC)) 94 % of control; (endpoint: mean survival time, dose: 20.0 mg/kg/injection, schedule: Q01DX007 (ip), vehicle: saline with Tween-80) 113 % of control; (endpoint: mean survival time, dose: 20.0 mg/kg/injection, schedule: Q01DX009 (ip), vehicle: Klucel (hydroxypropylcellulose) (HPC)) 86 % of control; (endpoint: mean survival time, dose: 20.0 mg/kg/injection, schedule: Q01DX009 (ip), vehicle: saline with Tween-80) 100 % of control. Also, the T/C is, setting by setting: (endpoint: mean survival time, dose: 20.0 mg/kg/injection, schedule: Q04DX003 (ip), vehicle: Klucel (hydroxypropylcellulose) (HPC)) 186 % of control; (endpoint: median survival time, dose: 4.0 mg/kg/injection, schedule: Q01DX009 (ip), vehicle: saline) 183 % of control; (endpoint: median survival time, dose: 8.0 mg/kg/injection, schedule: Q01DX009 (ip), vehicle: saline) 155 % of control; (endpoint: median survival time, dose: 16.0 mg/kg/injection, schedule: Q01DX009 (ip), vehicle: saline) 88 % of control.

Turning to `CN(C)C1c2ccccc2-c2ccc(F)cc21` (stereo not drawn), the T/C is, setting by setting: (endpoint: mean survival time, dose: 50.0 mg/kg/injection, schedule: Q01DX001 (ip), vehicle: carboxymethylcellulose (CMC)) 107 % of control; (endpoint: mean survival time, dose: 100.0 mg/kg/injection, schedule: Q01DX001 (ip), vehicle: carboxymethylcellulose (CMC)) 113 % of control.

Regarding `CCCCC(NC(=O)C(C)NC(=O)OCc1ccccc1)C(=O)O` (stereo not drawn), the T/C was 98 % of control under setting [1], 101 % of control under setting [2] and 98 % of control under setting [3].

For `O=C1C=C(c2ccccc2)C(c2ccccc2)C(c2ccccc2)C1` (stereo not drawn), the T/C runs as follows: under setting [4], 93 % of control; (endpoint: mean survival time, dose: 200.0 mg/kg/injection, schedule: Q01DX009 (ip), vehicle: saline with Tween-80) 93 % of control; (endpoint: mean survival time, dose: 400.0 mg/kg/injection, schedule: Q01DX009 (ip), vehicle: saline with Tween-80) 96 % of control.

Take `BrC1(Br)C2CC/C=C/CCCCC21` (stereo not drawn): the T/C was 97 % of control (endpoint: mean survival time, dose: 100.0 mg/kg/injection, schedule: Q04DX003 (ip), vehicle: saline sonified); 94 % of control (endpoint: mean survival time, dose: 200.0 mg/kg/injection, schedule: Q04DX003 (ip), vehicle: saline sonified); 97 % of control (endpoint: mean survival time, dose: 400.0 mg/kg/injection, schedule: Q04DX003 (ip), vehicle: saline sonified).

For `O=C1C(O)=C(c2ccccc2C(=O)O)C(=O)C(O)=C1c1ccccc1C(=O)O`, the T/C under setting [4] was 92 % of control.

Regarding `COC(=O)/C(Br)=C/C(C)=O`, the T/C is 107 % of control under setting [5] and 95 % of control under setting [6].

Take `O=C(Nc1ccc([N+](=O)[O-])cc1Cl)OCCc1ccccn1`: the T/C is, setting by setting: (endpoint: mean survival time, dose: 50.0 mg/kg/injection, schedule: Q01DX009 (ip), vehicle: saline with Tween-80) 90 % of control; under setting [5], 98 % of control; under setting [1], 93 % of control; under setting [6], 95 % of control; under setting [2], 95 % of control; (endpoint: mean survival time, dose: 400.0 mg/kg/injection, schedule: Q01DX001 (ip), vehicle: saline with Tween-80) 93 % of control. For the same compound, the T/C under setting [3] is 90 % of control.

With `CN=NC1(OC(C)=O)CCCC1`, the T/C by setting is: (endpoint: mean survival time, dose: 3.12 mg/kg/injection, schedule: Q01DX009 (ip), vehicle: saline) 109 % of control; (endpoint: mean survival time, dose: 6.25 mg/kg/injection, schedule: Q01DX009 (ip), vehicle: saline) 111 % of control; (endpoint: mean survival time, dose: 12.5 mg/kg/injection, schedule: Q01DX009 (ip), vehicle: saline) 118 % of control and 121 % of control; (endpoint: mean survival time, dose: 25.0 mg/kg/injection, schedule: Q01DX009 (ip), vehicle: saline) 105 % of control.

For the compound `COc1ccc(C2OC2C(=O)O)cc1OC` (stereo not drawn), the T/C was 98 % of control under setting [1], 86 % of control under setting [2] and 96 % of control under setting [3].

`N=C(N)[Se]`: the T/C was 95 % of control under setting [1], 101 % of control under setting [2] and 95 % of control under setting [3].

For `NCCSCC(N)C(=O)O` (stereo not drawn), the T/C reads like this: (endpoint: mean survival time, dose: 50.0 mg/kg/injection, schedule: Q01DX009 (ip), vehicle: saline) 100 % of control; (endpoint: mean survival time, dose: 100.0 mg/kg/injection, schedule: Q01DX009 (ip), vehicle: saline) 100 % of control; (endpoint: mean survival time, dose: 200.0 mg/kg/injection, schedule: Q01DX009 (ip), vehicle: saline) 104 % of control.

On to `c1ccc(C[N+]23CCC(CC2)CC3)cc1`, for which the T/C runs as follows: (endpoint: mean survival time, dose: 6.25 mg/kg/injection, schedule: Q04DX003 (ip), vehicle: saline) 104 % of control; (endpoint: mean survival time, dose: 12.5 mg/kg/injection, schedule: Q04DX003 (ip), vehicle: saline) 103 % of control.
